Data taken from PMC6747455, “Active Site Architecture and Reaction Mechanism Determination of Cold Adapted β-D-galactosidase from Arthrobacter sp. 32cB” (International Journal of Molecular Sciences, 2019).
Values belong to the molecule of their own block, whether it stands above or below them.

How the values were obtained:
ArthβDG [1] = target: T1, ArthβDG (Arthrobacter sp. 32cB, UniProt A0A023UGN9); assay: hydrolysis in crystal, product seen by X-ray; format: biochemical; details: crystal soaked 1 min
T1 construct: recombinant, pBAD/Myc-His A vector (pBAD-Bgal32cB), E. coli LMG 194 host; ion exchange and size exclusion; five-domain protein, 110 kDa; functional dimer; GH2 family; catalytic residues E441 and E517

ArthβDG [2] = target: T1, ArthβDG; assay: hydrolysis in crystal, blue coloration; format: biochemical; details: 3 to 20 molar excess; blue within 3 min; galactose found in the structure
[3] = target: ArthβDG_E441Q mutein (β-D-galactosidase from Arthrobacter sp. 32cB, E441Q) (Arthrobacter sp. 32cB); assay: crystal structure; crystals grown in 25–45% Tacsimate, pH 6.0–8.0, seeded; space group P3121, one protein monomer in the asymmetric unit; dimer shown in Figure 2

T1 sequence (A0A023UGN9 1-1010): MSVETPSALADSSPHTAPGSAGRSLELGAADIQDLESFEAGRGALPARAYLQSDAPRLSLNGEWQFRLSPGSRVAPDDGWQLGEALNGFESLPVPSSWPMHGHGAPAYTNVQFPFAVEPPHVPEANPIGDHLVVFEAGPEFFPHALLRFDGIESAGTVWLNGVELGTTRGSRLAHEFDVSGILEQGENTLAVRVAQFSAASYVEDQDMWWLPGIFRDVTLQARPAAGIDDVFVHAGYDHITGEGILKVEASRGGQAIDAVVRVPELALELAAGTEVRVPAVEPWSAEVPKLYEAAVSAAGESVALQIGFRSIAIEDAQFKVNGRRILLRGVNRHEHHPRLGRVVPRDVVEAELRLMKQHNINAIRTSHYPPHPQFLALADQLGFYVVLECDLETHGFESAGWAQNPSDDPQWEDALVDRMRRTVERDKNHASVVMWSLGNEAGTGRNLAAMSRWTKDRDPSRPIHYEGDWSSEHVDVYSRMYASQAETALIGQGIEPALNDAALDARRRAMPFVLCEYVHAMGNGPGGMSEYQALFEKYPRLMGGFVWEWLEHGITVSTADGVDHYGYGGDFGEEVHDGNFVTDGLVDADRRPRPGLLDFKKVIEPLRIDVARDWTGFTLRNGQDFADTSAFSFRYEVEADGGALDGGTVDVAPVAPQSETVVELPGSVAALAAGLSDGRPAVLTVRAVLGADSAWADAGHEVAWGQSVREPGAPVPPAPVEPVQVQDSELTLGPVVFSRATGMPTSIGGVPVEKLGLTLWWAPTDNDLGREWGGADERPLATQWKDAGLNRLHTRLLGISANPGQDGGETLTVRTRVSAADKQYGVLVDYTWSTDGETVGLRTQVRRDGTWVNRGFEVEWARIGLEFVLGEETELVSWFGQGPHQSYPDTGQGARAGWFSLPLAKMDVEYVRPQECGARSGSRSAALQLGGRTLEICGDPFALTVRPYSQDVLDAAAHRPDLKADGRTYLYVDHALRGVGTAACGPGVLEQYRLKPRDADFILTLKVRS

Molecule: OC[C@H]1O[C@@H](O[C@H]2[C@H](O)[C@@H](O)C(O)O[C@@H]2CO)[C@H](O)[C@@H](O)[C@H]1O (stereo partly drawn) [LAC, lactose]
hydrolysis in crystal, product seen by X-ray (ArthβDG [1]): the active enzyme performed hydrolysis of lactose in crystal

Molecule: OC[C@H]1O[C@@H](Oc2c[nH]c3ccc(Br)c(Cl)c23)[C@H](O)[C@@H](O)[C@H]1O [X-gal, 5-bromo-4-chloro-3-indolyl-β-D-galactopyranoside]
hydrolysis in crystal, blue coloration (ArthβDG [2]): the enzyme in the crystal was in its active form and performed hydrolysis of X-gal

stoichiometry N [3]: 2
Molecule: ArthβDG_E441Q mutein (β-D-galactosidase from Arthrobacter sp. 32cB, E441Q) (enzyme)
